Experimental data reported in the NIST ThermoML archive (doi:10.1016/j.jct.2015.09.022).

Experiment: xn = mol fraction of the nth substance listed
Settings: 100.7 kPa, Liquid; for viscosity: Falling or rolling sphere viscometry; for speed of sound: Frequency=3 MHz, Sing-around technique in a fixed-path interferometer; for mass density: Vibrating tube method

CCCC[n+]1ccn(C)c1.O=S(=O)([N-]S(=O)(=O)C(F)(F)F)C(F)(F)F + CCCCOC(C)=O
Settings	mass density, 313.15 K [kg/m3]	mass density, 318.15 K [kg/m3]	mass density, 323.15 K [kg/m3]	speed of sound, 313.15 K [m/s]	speed of sound, 318.15 K [m/s]	speed of sound, 323.15 K [m/s]	viscosity, 313.15 K [mPa·s]	viscosity, 318.15 K [mPa·s]	viscosity, 323.15 K [mPa·s]
x1 = 0.0252	–	–	–	1128.5	1108.2	1089.6	–	–	–
x1 = 0.0521	–	–	–	1127	1109.2	1090.2	–	–	–
x1 = 0.0754	–	–	–	1127.2	1109.6	1091.3	–	–	–
x1 = 0.11	987.68	982.52	977.62	1127.8	1110	1092.3	0.96	0.8	0.83
x1 = 0.2089	1076.25	1071.24	1066.34	1133.2	1117.1	1101.2	1.72	1.49	1.37
x1 = 0.2993	1142.16	1137.09	1132.21	1139.5	1124.6	1109.9	2.81	2.35	2
x1 = 0.393	1199.24	1194.31	1189.38	1146.2	1132	1118.7	4.65	3.96	2.93
x1 = 0.4847	1246.74	1241.85	1236.98	1153.9	1140.8	1127.9	6.64	5.5	4.14
x1 = 0.5739	1286.33	1281.71	1276.92	1161	1148.4	1136	8.59	6.92	5.48
x1 = 0.687	1330.2	1325.49	1320.8	1170.2	1159.3	1147.5	12.16	9.96	8.24
x1 = 0.7791	1361.33	1356.79	1352.11	1178.5	1168	1155.7	15.96	13.17	10.74
x1 = 0.9056	1398.49	1393.84	1389.18	1188.4	1178.5	1166.3	22.61	18.87	15.82
x1 = 1	1422.37	1417.6	1412.86	1194.4	1184.5	1171.3	28.28	24.01	20.32
